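All cell lines were grown in 96-well plates and treated with compound for 48 hours. GI50 marks 50% less growth.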 Calls of active or inactive are those of the source. No stated cut-off is given here; in the data, active = GI50 up to about 1.1 µM and inactive = higher.
How the values were obtained:
Assay in all cases: inhibition of tumour cell growth, NCI panel, 48 h
786-0 = test system: 786-0
ACHN = test system: ACHN
CCRF-CEM = test system: CCRF-CEM
COLO 205 = test system: COLO 205
DU-145 = test system: DU-145
HCT-116 = test system: HCT-116
HL-60 = test system: HL-60
HOP-92 = test system: HOP-92
K562 = test system: K562
KM12 = test system: KM12
Malme-3M = test system: Malme-3M
NCI-H460 = test system: NCI-H460
OVCAR-3 = test system: OVCAR-3
RPMI-8226 = test system: RPMI-8226
SF-539 = test system: SF-539
SK-MEL-5 = test system: SK-MEL-5
SK-OV-3 = test system: SK-OV-3
SNB-19 = test system: SNB-19
TK-10 = test system: TK-10
UO-31 = test system: UO-31

Measured: GI50

CC1=NN(c2ccccc2)C(=O)/C1=C1\SC(c2ccccc2)(c2ccccc2)c2ccccc21
inactive: 786-0 > 100 µM | ACHN > 100 µM | CCRF-CEM > 100 µM | COLO 205 > 100 µM | DU-145 > 100 µM | HCT-116 50.4 µM | HL-60 > 100 µM | HOP-92 > 100 µM | K562 > 100 µM | KM12 > 100 µM | Malme-3M > 100 µM | NCI-H460 > 100 µM | OVCAR-3 > 100 µM | RPMI-8226 > 100 µM | SF-539 > 100 µM | SK-MEL-5 > 100 µM | SK-OV-3 > 100 µM | SNB-19 > 100 µM | TK-10 > 100 µM | UO-31 > 100 µM

C=CC[C@@]1(C)CCCCCCCCC[C@@](C)(CC=C)C1=O
inactive: 786-0 31.3 µM | ACHN 34.6 µM | CCRF-CEM 20.2 µM | COLO 205 19.6 µM | DU-145 50.2 µM | HCT-116 32.9 µM | HL-60 20.7 µM | HOP-92 46.8 µM | K562 28.7 µM | KM12 30.1 µM | Malme-3M 25.7 µM | NCI-H460 24.4 µM | OVCAR-3 19 µM | RPMI-8226 28.3 µM | SF-539 41.1 µM | SK-MEL-5 16 µM | SK-OV-3 41.1 µM | SNB-19 20.5 µM | TK-10 99.1 µM | UO-31 53.6 µM

COC(=O)/C=C1/OC(c2ccccc2)=C(C)C1=O
inactive: 786-0 10.2 µM | ACHN 13 µM | CCRF-CEM 3.62 µM | COLO 205 17.5 µM | DU-145 19.3 µM | HCT-116 4.18 µM | HL-60 1.97 µM | HOP-92 13.2 µM | K562 3.2 µM | KM12 14.1 µM | Malme-3M 13.3 µM | NCI-H460 20 µM | OVCAR-3 20 µM | RPMI-8226 2.19 µM | SF-539 17.4 µM | SK-MEL-5 13.6 µM | SK-OV-3 10.7 µM | SNB-19 16.4 µM | TK-10 15.7 µM | UO-31 13.8 µM

OCCSCc1cc2c(O)c(c1)Cc1cc(CSCCO)cc(c1O)Cc1cc(CSCCO)cc(c1O)Cc1cc(CSCCO)cc(c1O)C2
inactive: 786-0 3.29 µM | ACHN 3.19 µM | CCRF-CEM 5.35 µM | COLO 205 2.68 µM | DU-145 4.91 µM | HCT-116 4.02 µM | HL-60 4.04 µM | HOP-92 4.26 µM | K562 7.28 µM | KM12 4.28 µM | Malme-3M 2.04 µM | NCI-H460 2.89 µM | OVCAR-3 1.73 µM | RPMI-8226 3.95 µM | SF-539 4.02 µM | SK-MEL-5 2.69 µM | SK-OV-3 8.47 µM | SNB-19 4.69 µM | TK-10 4.8 µM | UO-31 13.8 µM

COc1c2ccoc2nc2c(OC)c(OCC(O)C(C)(C)O)ccc12 (stereo not given) [EVOXINE]
inactive: 786-0 > 100 µM | ACHN > 100 µM | CCRF-CEM > 100 µM | COLO 205 > 100 µM | DU-145 > 100 µM | HCT-116 > 100 µM | HL-60 > 100 µM | HOP-92 > 100 µM | K562 > 100 µM | KM12 > 100 µM | Malme-3M > 100 µM | NCI-H460 > 100 µM | OVCAR-3 > 100 µM | RPMI-8226 > 100 µM | SF-539 > 100 µM | SK-MEL-5 > 100 µM | SK-OV-3 > 100 µM | SNB-19 > 100 µM | TK-10 > 100 µM | UO-31 > 100 µM
